# Data published in US8952024B2, “Herbicidal pyrimidone derivatives” (E I du Pont de Nemours and Company, priority 2009, dated 2015).
# Columns and labels:
# Assay in all cases: Test B pre-/postemergence plant response
# Assay type in all cases: in vivo
# [1] = system: Italian ryegrass (Lolium multiflorum)
# Description: (§1) Seeds of plant species selected from blackgrass (Alopecurus myosuroides), downy bromegrass (Bromus tectorum), green foxtail (Setaria viridis), Italian ryegrass (Lolium multiflorum), wheat (Triticum aestivum), wild oat (Avena fatua), deadnettle (henbit deadnettle, Lamium amplexicaule), galium (catchweed bedstraw, Galium aparine), bermudagrass (Cynodon dactylon), Surinam grass (Brachiaria decumbens), cocklebur (Xanthium strumarium), corn (Zea mays), large crabgrass (Digitaria sanguinalis), woolly cupgrass (Eriochloa villosa), giant foxtail (Setaria faberii), goosegrass (Eleusine indica), johnsongrass (Sorghum halepense), kochia (Kochia scoparia), lambsquarters (Chenopodium album), morningglory (Ipomoea coccinea), nightshade (eastern black nightshade, Solanum ptycanthum), yellow nutsedge (Cyperus esculentus), pigweed (Amaranthus retroflexus), ragweed (common ragweed, Ambrosia elatior), Russian thistle (Salsola kali), soybean (Glycine max), sunflower (common oilseed sunflower, Helianthus annuus) and velvetleaf (Abutilon theophrasti) were planted into a blend of loam soil and sand and treated preemergence with test compounds formulated in a non-phytotoxic solvent mixture which included a surfactant.
# (§2) At the same time, plants selected from these crop and weed species and also winter barley (Hordeum vulgare), canarygrass (Phalaris minor), chickweed (Stellaria media) and windgrass (Apera spica-venti) were planted in pots containing Redi-Earth® planting medium (Scotts Company, 14111 Scottslawn Road, Marysville, Ohio 43041) comprising spaghnum peat moss, vermiculite, wetting agent and starter nutrients and treated with postemergence applications of some of the test chemicals formulated in the same manner. Plants ranged in height from 2 to 18 cm (1- to 4-leaf stage) for postemergence treatments.
# (§3) Treated plants and controls were maintained in a greenhouse for 13 to 15 days, after which time all treated plants were visually evaluated and compared to controls. Plant response ratings, summarized in Table B, are based on a scale of 0 to 100 where 0 is no effect and 100 is complete control. A dash (-) response means no test result.
# [2] = system: bermudagrass (Cynodon dactylon)
# Description: as §1, §2, §3
# [3] = system: cocklebur (Xanthium strumarium)
# Description: as §1, §2, §3
# [4] = system: downy bromegrass (Bromus tectorum)
# Description: as §1, §2, §3
# kochia (Kochia scoparia) = conditions: Postemergence; for Plant response rating, Kochia: scale 0 (no effect) to 100 (complete control); for Kochia plant response rating: 250 g ai/ha, scale 0 to 100
# Description: as §1, §2, §3
# [5] = system: large crabgrass (Digitaria sanguinalis)
# Description: as §1, §2, §3
# [6] = system: morningglory (Ipomoea coccinea)
# Description: as §1, §2, §3
# soybean (Glycine max) = system: soybean (Glycine max)
# Description: as §1, §2, §3
# [7] = system: velvetleaf (Abutilon theophrasti)
# Description: as §1, §2, §3
# [8] = system: wheat (Triticum aestivum)
# Description: as §1, §2, §3
# [9] = system: woolly cupgrass (Eriochloa villosa)
# Description: as §1, §2, §3
# [10] = system: yellow nutsedge (Cyperus esculentus)
# Description: as §1, §2, §3
# [11] = 250 g ai/ha, Preemergence, 0 to 100 scale
# [12] = Postemergence, 62 g ai/ha, scale 0 (no effect) to 100 (complete control), 13 to 15 days
# [13] = Postemergence, 125 g ai/ha, visual rating after 13 to 15 days, scale 0 (no effect) to 100 (complete control)
# [14] = Preemergence, 31 g ai/ha, scale 0 to 100 (0 no effect, 100 complete control)
# [15] = Preemergence, 125 g ai/ha, 0 to 100 scale
# [16] = Postemergence, 250 g ai/ha, scale 0 to 100
# [17] = Preemergence, 62 g ai/ha, scale 0 to 100 (0 no effect, 100 complete control)
# [18] = Postemergence, 31 g ai/ha, scale 0 to 100 (0 no effect, 100 complete control)
# [19] = 125 g ai/ha, visual rating after 13 to 15 days
smiles,measurement,setting,value
Cc1c(Cl)cccc1-n1c(-c2ccccc2)ncc(C(=O)C2=C(O)CCCC2=O)c1=O [Compound 40],"Plant response rating, Ryegrass, Italian",[1]; [11],5
same,"Plant response rating, Ryegrass, Italian",[1]; [12],0
same,"Plant response rating, Ryegrass, Italian",[1]; [13],0
same,"Plant response rating, Ryegrass, Italian",[1]; [14],0
same,"Ryegrass, Italian plant response rating",[1]; [15],5
same,"Plant response rating, Bermudagrass",[2]; [11],100
same,"Plant response rating, Bermudagrass",[2]; [12],100
same,"Plant response rating, Bermudagrass",[2]; [13],100
same,Bermudagrass plant response rating,[2]; [16],100
same,"Plant response rating, Bermudagrass",[2]; [14],98
same,"Plant response rating, Bermudagrass",[2]; [17],100
same,Bermudagrass plant response rating,[2]; [15],100
same,"Plant response rating, Cocklebur",[3]; [11],100
same,"Plant response rating, Cocklebur",[3]; [14],65
same,Cocklebur plant response rating,[3]; [15],85
same,"Plant response rating, Bromegrass, Downy",[4]; [11],10
same,"Plant response rating, Bromegrass, Downy",[4]; [18],45
same,"Plant response rating, Bromegrass, Downy",[4]; [12],50
same,"Plant response rating, Bromegrass, Downy",[4]; [13],70
same,"Bromegrass, Downy plant response rating",[4]; [16],85
same,"Plant response rating, Bromegrass, Downy",[4]; [14],0
same,"Plant response rating, Bromegrass, Downy",[4]; [17],0
same,"Bromegrass, Downy plant response rating",[4]; [15],5
same,"Plant response rating, Kochia","kochia (Kochia scoparia); 62 g ai/ha, 13 to 15 days",0
same,"Plant response rating, Kochia",kochia (Kochia scoparia); [19],10
same,Kochia plant response rating,kochia (Kochia scoparia),75
same,"Plant response rating, Crabgrass, Large",[5]; [11],100
same,"Plant response rating, Crabgrass, Large",[5]; [18],85
same,"Plant response rating, Crabgrass, Large",[5]; [12],98
same,"Plant response rating, Crabgrass, Large",[5]; [13],100
same,"Crabgrass, Large plant response rating",[5]; [16],100
same,"Plant response rating, Crabgrass, Large",[5]; [14],70
same,"Plant response rating, Crabgrass, Large",[5]; [17],98
same,"Crabgrass, Large plant response rating",[5]; [15],100
same,"Plant response rating, Morningglory",[6]; [11],65
same,"Plant response rating, Morningglory",[6]; [13],75
same,"Plant response rating, Morningglory",[6]; [14],0
same,"Plant response rating, Morningglory",[6]; [17],0
same,Morningglory plant response rating,[6]; [15],0
same,"Plant response rating, Soybean",soybean (Glycine max); [11],70
same,"Plant response rating, Soybean",soybean (Glycine max); [12],100
same,"Plant response rating, Soybean",soybean (Glycine max); [13],100
same,"Plant response rating, Soybean",soybean (Glycine max); [14],0
same,Soybean plant response rating,soybean (Glycine max); [15],20
same,"Plant response rating, Velvetleaf",[7]; [11],100
same,"Plant response rating, Velvetleaf",[7]; [12],100
same,"Plant response rating, Velvetleaf",[7]; [13],100
same,"Plant response rating, Velvetleaf",[7]; [14],80
same,Velvetleaf plant response rating,[7]; [15],100
same,"Plant response rating, Wheat",[8]; [12],20
same,"Plant response rating, Wheat",[8]; [13],30
same,"Plant response rating, Wheat",[8]; [14],0
same,Wheat plant response rating,[8]; [15],0
same,"Plant response rating, Cupgrass, Woolly",[9]; [11],85
same,"Plant response rating, Cupgrass, Woolly",[9]; [18],90
same,"Plant response rating, Cupgrass, Woolly",[9]; [12],95
same,"Plant response rating, Cupgrass, Woolly",[9]; [13],98
same,"Cupgrass, Woolly plant response rating",[9]; [16],98
same,"Plant response rating, Cupgrass, Woolly",[9]; [14],0
same,"Plant response rating, Cupgrass, Woolly",[9]; [17],50
same,"Cupgrass, Woolly plant response rating",[9]; [15],70
same,"Plant response rating, Nutsedge, Yellow",[10]; [11],85
same,"Plant response rating, Nutsedge, Yellow",[10]; [12],35
same,"Plant response rating, Nutsedge, Yellow",[10]; [13],55
same,"Plant response rating, Nutsedge, Yellow",[10]; [14],10
same,"Nutsedge, Yellow plant response rating",[10]; [15],65
CCCCc1ncc(C(=O)C2=C(O)CCCC2=O)c(=O)n1-c1ccccc1 [Compound 42],"Plant response rating, Ryegrass, Italian",[1]; [11],0
same,"Plant response rating, Ryegrass, Italian",[1]; [12],5
same,"Plant response rating, Ryegrass, Italian",[1]; [13],10
same,"Plant response rating, Ryegrass, Italian",[1]; [14],0
same,"Ryegrass, Italian plant response rating",[1]; [15],0
same,"Plant response rating, Bermudagrass",[2]; [11],100
same,"Plant response rating, Bermudagrass",[2]; [18],70
same,"Plant response rating, Bermudagrass",[2]; [12],75
same,"Plant response rating, Bermudagrass",[2]; [13],95
same,Bermudagrass plant response rating,[2]; [16],98
same,"Plant response rating, Bermudagrass",[2]; [14],90
same,"Plant response rating, Bermudagrass",[2]; [17],100
same,Bermudagrass plant response rating,[2]; [15],100
same,"Plant response rating, Cocklebur",[3]; [18],0
same,"Plant response rating, Cocklebur",[3]; [12],45
same,"Plant response rating, Cocklebur",[3]; [13],85
same,Cocklebur plant response rating,[3]; [16],95
same,"Plant response rating, Cocklebur",[3]; [14],0
same,"Plant response rating, Cocklebur",[3]; [17],0
same,"Plant response rating, Bromegrass, Downy",[4]; [11],0
same,"Plant response rating, Bromegrass, Downy",[4]; [18],0
same,"Plant response rating, Bromegrass, Downy",[4]; [12],5
same,"Plant response rating, Bromegrass, Downy",[4]; [13],15
same,"Bromegrass, Downy plant response rating",[4]; [16],25
same,"Plant response rating, Bromegrass, Downy",[4]; [14],0
same,"Plant response rating, Bromegrass, Downy",[4]; [17],0
same,"Bromegrass, Downy plant response rating",[4]; [15],0
same,"Plant response rating, Kochia","kochia (Kochia scoparia); 62 g ai/ha, 13 to 15 days",100
same,"Plant response rating, Kochia",kochia (Kochia scoparia); [19],100
same,Kochia plant response rating,kochia (Kochia scoparia),100
same,"Plant response rating, Crabgrass, Large",[5]; [11],100
same,"Plant response rating, Crabgrass, Large",[5]; [18],70
same,"Plant response rating, Crabgrass, Large",[5]; [12],75
same,"Plant response rating, Crabgrass, Large",[5]; [13],85
same,"Crabgrass, Large plant response rating",[5]; [16],90
same,"Plant response rating, Crabgrass, Large",[5]; [14],45
same,"Plant response rating, Crabgrass, Large",[5]; [17],85
same,"Crabgrass, Large plant response rating",[5]; [15],95
same,"Plant response rating, Morningglory",[6]; [11],0
same,"Plant response rating, Morningglory",[6]; [12],70
same,"Plant response rating, Morningglory",[6]; [13],75
same,"Plant response rating, Morningglory",[6]; [14],0
same,"Plant response rating, Morningglory",[6]; [17],0
same,Morningglory plant response rating,[6]; [15],0
same,"Plant response rating, Soybean",soybean (Glycine max); [11],0
same,"Plant response rating, Soybean",soybean (Glycine max); [12],90
same,"Plant response rating, Soybean",soybean (Glycine max); [13],95
same,"Plant response rating, Soybean",soybean (Glycine max); [14],0
same,Soybean plant response rating,soybean (Glycine max); [15],0
same,"Plant response rating, Velvetleaf",[7]; [11],90
same,"Plant response rating, Velvetleaf",[7]; [12],80
same,"Plant response rating, Velvetleaf",[7]; [13],95
same,"Plant response rating, Velvetleaf",[7]; [14],75
same,Velvetleaf plant response rating,[7]; [15],85
same,"Plant response rating, Wheat",[8]; [11],0
same,"Plant response rating, Wheat",[8]; [12],0
same,"Plant response rating, Wheat",[8]; [13],5
same,"Plant response rating, Wheat",[8]; [14],0
same,Wheat plant response rating,[8]; [15],0
same,"Plant response rating, Cupgrass, Woolly",[9]; [11],5
same,"Plant response rating, Cupgrass, Woolly",[9]; [18],15
same,"Plant response rating, Cupgrass, Woolly",[9]; [12],20
same,"Plant response rating, Cupgrass, Woolly",[9]; [13],25
same,"Cupgrass, Woolly plant response rating",[9]; [16],55
same,"Plant response rating, Cupgrass, Woolly",[9]; [14],0
same,"Plant response rating, Cupgrass, Woolly",[9]; [17],0
same,"Cupgrass, Woolly plant response rating",[9]; [15],0
same,"Plant response rating, Nutsedge, Yellow",[10]; [11],85
same,"Plant response rating, Nutsedge, Yellow",[10]; [12],60
same,"Plant response rating, Nutsedge, Yellow",[10]; [13],70
same,"Plant response rating, Nutsedge, Yellow",[10]; [14],10
same,"Nutsedge, Yellow plant response rating",[10]; [15],75
